In the experiment the target is PAR1 (Homo sapiens (Human), UniProt P25116). Nature of the experiment: PAR1 binding test (radioligand displacement, membrane preparation). The following applies: human PAR1 expressed in High Five insect cell membranes; radioligand 20 nM; read-out: Inhibition of binding IC50. The protocol: The synthesized substances were examined in a PAR1 binding test. This tested whether the substances can inhibit the binding of a radioactively labeled PAR1 agonist known from the literature at the PAR1 receptor (Ho-Sam Ahn, Mol Pharm, 51:350-356, 1997). The human PAR1 receptor was expressed transiently in High Five insect cells. From these cells, after 48 hours, a membrane preparation was produced by standard methods, aliquoted into 10 mM Tris-HCl; 0.3 mM EDTA; 1 mM EGTA; 250 mM sucrose pH 7.5, and stored at −80° C.
The substances were preincubated with the membrane at room temperature for 15 minutes, then the radioligand (ALA-(para-F-Phe)-Arg-ChA-homoArg-(3,4-^3H-Tyr)-NH2; approx. 40 Ci/mMol) was added. The end concentration of the radioligand in the test buffer (50 mM Tris-HCl; 10 mM MgCl2; 1 mM EGTA; 0.1% BSA; 2% DMSO) was 20 nM, that of the membrane 1 mg/ml. After an incubation time of 60 minutes, 25 μL of the mixture were transferred to a 96-well MultiScreenHTS FB microtiter filtration plate (from Millipore), which had been pretreated beforehand with a 0.75% aqueous polyethyleneimine solution for 5 hours at room temperature. Thereafter, with vacuum extraction, each well was washed four times with 300 μL of buffer (50 mM Tris-HCl; 10 mM MgCl2; 1 mM EGTA). The plate was then dried overnight, 100 μl of scintillator per well were added, and the plate was analyzed after 6 hours in a Wallac MicroBeta (from PerkinElmer) liquid scintillation counter. The nonspecific binding was determined in the presence of 100 μM SCH79797 (PAR-1 antagonist; from Tocris, Cat. No. 1592) and subtracted from all measurements. The 100% value used was a control without inhibitor. The % inhibition values of a substance dilution series were used to calculate the IC50 with the aid of nonlinear regression analysis according to the 4-parameter equation.

Where a name gives a salt, the structure may show the parent alone.

Sequence of PAR1 (P25116 22-425): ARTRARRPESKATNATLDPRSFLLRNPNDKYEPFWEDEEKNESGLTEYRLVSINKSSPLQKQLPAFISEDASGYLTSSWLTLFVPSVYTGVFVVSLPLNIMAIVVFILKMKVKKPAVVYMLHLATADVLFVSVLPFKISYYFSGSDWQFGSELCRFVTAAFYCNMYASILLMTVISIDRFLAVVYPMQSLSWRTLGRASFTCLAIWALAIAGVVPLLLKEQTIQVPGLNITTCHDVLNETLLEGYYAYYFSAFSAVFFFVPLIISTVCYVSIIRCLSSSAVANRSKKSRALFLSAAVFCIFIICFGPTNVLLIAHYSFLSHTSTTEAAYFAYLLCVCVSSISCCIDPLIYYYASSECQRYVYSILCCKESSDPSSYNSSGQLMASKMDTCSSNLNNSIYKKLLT

Turning to `CCC(CC)Oc1ccc2nn(CC(=O)c3cc(N4CCOCC4)c(OC)c(C(C)(C)C)c3)c(=N)n2n1` [Example 14, 1-(3-tert-butyl-4-methoxy-5-morpholin-4-ylphenyl)-2-[6-(1-ethylpropoxy)-3-imino-[1,2,4]triazolo[4,3-b]pyridazin-2-yl)ethanone trifluoroacetic acid salt], the IC50 (as a rule, the midpoint of a concentration-inhibition curve) turned out to be 0.279 µM.

With `CCC(CC)Oc1ccc2nn(CC(=O)c3cc(OCC4CC4)cc(C(C)(C)C)c3)c(=N)n2n1` [Example 26, 1-(3-tert-butyl-5-cyclopropylmethoxyphenyl)-2-[6-(1-ethylpropoxy)-3-imino-[1,2,4]triazolo[4,3-b]pyridazin-2-yl]ethanone hydrochloride], the IC50 worked out at 1.1 µM.

As for `CCC(CC)Oc1ccc2nn(CC(=O)c3cc(OCCOC)cc(C(C)(C)C)c3)c(=N)n2n1` [Example 50, 1-[3-tert-butyl-5-(2-methoxy-ethoxy)phenyl]-2-[6-(1-ethylpropoxy)-3-imino-[1,2,4]triazolo[4,3-b]pyridazin-2-yl]ethanone hydrochloride], the IC50 was 0.631 µM.

For the compound `COc1c(N2CCOCC2)cc(C(=O)Cn2nc3ccc(Cl)nn3c2=N)cc1C(C)(C)C` [Example 56, 1-(3-tert-butyl-4-methoxy-5-morpholin-4-ylphenyl)-2-(6-chloro-3-imino-[1,2,4]triazolo-[4,3-b]pyridazin-2-yl)-ethanone trifluoroacetic acid salt], the IC50 worked out at 24 µM.

For the compound `CCOc1nn2c(=N)n(CC(=O)c3cc(OC)cc(S(F)(F)(F)(F)F)c3)nc2cc1N(CC)CC` [Example 84, 2-(7-diethylamino-6-ethoxy-3-imino-[1,2,4]triazolo[4,3-b]pyridazin-2-yl)-1-[3-methoxy-5-(pentafluorosulfanyl)-phenyl]ethanone trifluoroacetic acid salt], the IC50 stood at 9.8 µM.

As for `CCC(CC)Oc1cc(C)c2nn(CC(=O)c3cc(OCCO)cc(C(C)(C)C)c3)c(=N)n2n1` [Example 89, 1-[3-tert-butyl-5-(2-hydroxyethoxy)phenyl]-2-[6-(1-ethylpropoxy)-3-imino-8-methyl-[1,2,4]triazolo[4,3-b]pyridazin-2-yl]ethanone hydrochloride], the IC50 was determined as 0.107 µM.

Consider `COCCCOc1cc(C(=O)Cn2nc3c(C)cc(OCCO)nn3c2=N)cc(C(C)(C)C)c1` [Example 101, 1-[3-tert-butyl-5-(3-methoxy-propoxy)phenyl]-2-[6-(2-hydroxyethoxy)-3-imino-8-methyl-[1,2,4]triazolo[4,3-b]pyridazin-2-yl]ethanone hydrochloride], for which the IC50 was 1.4 µM.

As for `CCC(CC)Oc1cc(C)c2nn(CC(=O)c3cc(OCCO)c(OC)c(C(C)(C)C)c3)c(=N)n2n1` [Example 117, 1-[3-tert-butyl-5-(2-hydroxy-ethoxy)-4-methoxyphenyl]-2-[6-(1′-ethylpropoxy)-3-imino-8-methyl-[1,2,4]triazolo[4,3-b]-pyridazin-2-yl]ethanone hydrochloride], the IC50 came out at 0.098 µM.

For the compound `CCOc1cc(C)c2nn(CC(=O)c3cc(OC(COC)COC)cc(C(C)(C)C)c3)c(=N)n2n1` [Example 127, 1-[3-tert-butyl-5-(2-methoxy-1-methoxymethylethoxy)phenyl]-2-(6-ethoxy-3-imino-8-methyl-[1,2,4]triazolo[4,3-b]pyridazin-2-yl)ethanone hydrochloride], the IC50 worked out at 2.5 µM.

Turning to `CCOc1nn2c(=N)n(CC(=O)c3cc(N4CCOCC4)c(OC)c(C(C)(C)C)c3)nc2cc1CC` [Example 144, 1-(3-tert-butyl-4-methoxy-5-morpholin-4-ylphenyl)-2-(6-ethoxy-7-ethyl-3-imino-[1,2,4]triazolo[4,3-b]pyridazin-2-yl)ethanone trifluoroacetic acid salt], the IC50 worked out at 0.827 µM.

Turning to `CCC(CC)Oc1cc(C)c2nn(CC(=O)c3cc(OCCO)cc(S(F)(F)(F)(F)F)c3)c(=N)n2n1` [Example 161, 2-[6-(1-ethylpropoxy)-3-imino-8-methyl-[1,2,4]triazolo[4,3-b]pyridazin-2-yl]-1-[3-(2-hydroxy-ethoxy)-5-(pentafluorosulfanyl)-phenyl]ethanone trifluoroacetic acid salt], the IC50 was 0.365 µM.

Regarding `CCOc1nn2/c(=N/C)n(CC(=O)c3cc(OCCO)cc(C(C)(C)C)c3)nc2c(C)c1C` [Example 163, 1-[3-tert-butyl-5-(2-hydroxy-ethoxy)phenyl]-2-{6-ethoxy-7,8-dimethyl-3-[(E)-methylimino]-[1,2,4]triazolo[4,3-b]pyridazin-2-yl}ethanone hydrochloride], the IC50 was found to be 0.364 µM.

As for `CCOc1cc(C(C)(C)O)c2nn(CC(=O)c3cc(OCCCO)c(OC)c(C(C)(C)C)c3)c(=N)n2n1` [Example 168, 1-[3-tert-butyl-5-(3-hydroxy-propoxy)-4-methoxyphenyl]-2-[6-ethoxy-8-(1-hydroxy-1-methyl-ethyl)-3-imino-[1,2,4]triazolo[4,3-b]pyridazin-2-yl]ethanone hydrochloride], the IC50 was 0.257 µM.

In the case of `CCOc1cc(CC)c2nn(CC(=O)c3cc(OCCCO)c(OC)c(C(C)(C)C)c3)c(=N)n2n1` [Example 174, 1-[3-tert-butyl-5-(3-hydroxy-propoxy)-4-methoxyphenyl]-2-(6-ethoxy-8-ethyl-3-imino-[1,2,4]triazolo[4,3-b]pyridazin-2-yl)ethanone hydrochloride], the IC50 amounted to 0.183 µM.

Regarding `CCOc1nn2c(=N)n(CC(=O)c3cc(OCCCCO)c(OC)c(C(C)(C)C)c3)nc2c(C)c1C` [Example 178, 1-[3-tert-butyl-5-(4-hydroxy-butoxy)-4-methoxyphenyl]-2-(6-ethoxy-3-imino-7,8-dimethyl-[1,2,4]triazolo[4,3-b]pyridazin-2-yl)ethanone hydrochloride], the IC50 amounted to 0.126 µM.

Turning to `CCN(CC)c1nn2c(=N)n(CC(=O)c3cc(OCCCO)c(OC)c(C(C)(C)C)c3)nc2c(C)c1C` [Example 186, 1-[3-tert-butyl-5-(3-hydroxy-propoxy)-4-methoxyphenyl]-2-(6-diethylamino-3-imino-7,8-methyl-[1,2,4]triazolo[4,3-b]pyridazin-2-yl)ethanone hydrochloride], the IC50 was found to be 0.119 µM.

Regarding `CCOc1nn2c(=N)n(CC(=O)c3cc(OCCCO)c(OC)c(C(C)(C)C)c3)nc2c(CC)c1CC` [Example 197, 1-[3-tert-butyl-5-(3-hydroxy-propoxy)-4-methoxyphenyl]-2-(6-ethoxy-7,8-diethyl-3-imino-[1,2,4]triazolo[4,3-b]pyridazin-2-yl)ethanone hydrochloride], the IC50 came to 0.149 µM.

As for `COc1c(OCCCCO)cc(C(=O)Cn2nc3c(C)cc(OCC4CC4)nn3c2=N)cc1C(C)(C)C` [Example 199, 1-[3-tert-butyl-5-(4-hydroxy-butoxy)-4-methoxyphenyl]-2-(6-cyclopropylmethoxy-3-imino-8-methyl-[1,2,4]triazolo[4,3-b]pyridazin-2-yl)ethanone hydrochloride], the IC50 turned out to be 0.206 µM.

Consider `CCNC(=O)c1nn2/c(=N/C)n(CC(=O)c3cc(OCCO)c(OC)c(C(C)(C)C)c3)nc2c(C)c1C` [Example 207, N-ethyl-2-{2-[3-tert-butyl-5-(2-hydroxyethoxy)-4-methoxy-phenyl]-2-oxoethyl}-7,8-dimethyl-3-[(E)-methylimino]-2,3-dihydro-[1,2,4]triazolo[4,3-b]pyridazine-6-carboxamide hydrochloride], for which the IC50 is 0.174 µM.

Regarding `Cc1c(OC(C)C)nn2c(=N)n(CC(=O)c3cc(OCCO)cc(C(C)(C)C)c3)nc2c1C` [Example 215, 1-[3-tert-butyl-5-(2-hydroxy-ethoxy)phenyl]-(3-imino-6-isopropoxy-7,8-dimethyl-[1,2,4]triazolo[4,3-b]pyridazin-2-yl)ethanone hydrochloride], the half-maximal inhibitory concentration (IC50) worked out at 0.219 µM.

Take `CCOc1nn2c(=N)n(CC(=O)c3cc(OCCO)cc(C(C)(C)C)c3)nc2c(CC)c1C` [Example 221, 1-[3-tert-butyl-5-(2-hydroxy-ethoxy)phenyl]-2-(6-ethoxy-8-ethyl-3-imino-7-methyl-[1,2,4]triazolo[4,3-b]pyridazin-2-yl)ethanone hydrochloride]: the IC50 turned out to be 0.155 µM.

Turning to `CCOc1nn2c(=N)n(CC(=O)c3cc(OCCCF)cc(C(C)(C)C)c3)nc2c(C)c1C` [Example 222, 1-[3-tert-butyl-5-(3-fluoro-propoxy)phenyl]-2-(6-ethoxy-3-imino-7,8-dimethyl-[1,2,4]triazolo[4,3-b]pyridazin-2-yl)ethanone hydrochloride], the IC50 was 0.416 µM.

For `CCOc1nn2c(=N)n(CC(=O)c3cc(C(C)(C)C)cc(C(C)(C)OC)c3)nc2c(C)c1C` [Example 230, 1-[3-tert-butyl-5-(1-methoxy-1-methylethyl)phenyl]-2-(6-ethoxy-3-imino-7,8-dimethyl-[1,2,4]triazolo[4,3-b]pyridazin-2-yl)ethanone hydrochloride], the IC50 was 0.234 µM.

The record behind these values is patent publication US9079906B2, “Triazolopyridazines as PAR1 inhibitors, production thereof, and use as medicaments” (Sanofi, priority 2008, dated 2015).
